US12221453B2, “Substituted pyrazolo[5′,1′:2,3]pyrimido[5,4-b][1,4]oxazines as TYK2 inhibitors” (TAKEDA PHARMACEUTICAL COMPANY LIMITED, priority 2018, dated 2025)

Tested on: IL-12 induced STAT4 phosphorylation mediated by TYK2/JAK2
Experiment: IL-12 induced pSTAT4 in human PBMC
Format: cell-based
Conditions: 1 hr compound, 1.7 ng/mL IL-12 for 30 minutes
Description: Human PBMC were isolated from buffy coat and are stored frozen for assays as needed. […] 15 μL of compound or DMSO was added to the well at the desired concentrations and incubated at 1 hr at 37° C. 15 μL of stimulus (final concentration of 1.7 ng/mL IL-12) was added for 30 minutes prior to pSTAT4 and total STAT4 analysis using cell lysates prepared and analyzed by MSD reagents as per manufacturer protocol. The final DMSO concentration of compound in the assay was 0.1%. The IL-12 induced pSTAT4 assay evaluates the inhibition of IL-12 induced STAT4 phosphorlyation mediated by TYK2/JAK2 ([…] complex).

IC50	Compound
< 0.1 µM	CNc1cc(Nc2cccn(C3CCN(CCF)CC3)c2=O)nc2c(C(=O)NC3CC[C@@H]3F)cnn12 (stereo partly shown) [Compound I-236]
< 0.1 µM	CNc1cc(Nc2cccn(C3CCN(CCF)CC3)c2=O)nc2c(C(=O)N[C@H]3CC[C@@H]3F)cnn12 [Compound I-237]
< 0.1 µM	CNc1cc(Nc2cccn([C@H]3CC[C@@H]3OC)c2=O)nc2c(C(=O)NC3CC[C@H]3O)cnn12 (stereo partly shown) [Compound I-239]
< 0.1 µM	CNc1cc(Nc2cccn([C@H]3CC[C@@H]3OC)c2=O)nc2c(C(=O)N[C@H]3CC[C@H]3O)cnn12 [Compound I-240]
< 0.1 µM	CNc1cc(Nc2cccn([C@@H]3CC[C@H]3OC)c2=O)nc2c(C(=O)N[C@H]3CC[C@H]3O)cnn12 [Compound I-243]
< 0.1 µM	CNc1cc(Nc2cccn([C@H]3C[C@@H](OC)C3)c2=O)nc2c(C(=O)N[C@H]3CC[C@@H]3OC)cnn12 [Compound I-253]
< 0.1 µM	CNc1cc(Nc2cccn([C@H]3C[C@H](OC)C3)c2=O)nc2c(C(=O)N[C@H]3CC[C@@H]3OC)cnn12 [Compound I-255]
< 0.1 µM	CNc1cc(Nc2cccn([C@H]3CCC[C@@H](C#N)C3)c2=O)nc2c(C(=O)N[C@@H]3CC[C@H]3OC)cnn12 [Compound I-258]
< 0.1 µM	CNc1cc(Nc2cccn([C@@H]3CCC[C@H](C#N)C3)c2=O)nc2c(C(=O)N[C@@H]3CC[C@H]3OC)cnn12 [Compound I-260]
< 0.1 µM	CNc1cc(Nc2cccn([C@H]3[C@@H]4COC[C@@H]43)c2=O)nc2c(C(=O)N[C@@H]3CC[C@H]3OC)cnn12 [Compound I-262]
< 0.1 µM	CNc1cc(Nc2cccn(-c3ccccn3)c2=O)nc2c(C(=O)N[C@@H]3CC[C@H]3OC)cnn12 [Compound I-264]
< 0.1 µM	CNc1cc(Nc2cccn(-c3ncccc3F)c2=O)nc2c(C(=O)NC3CC[C@H]3OC)cnn12 (stereo partly shown) [Compound I-265]
< 0.1 µM	CNc1cc(Nc2cccn(-c3ncccc3F)c2=O)nc2c(C(=O)N[C@@H]3CC[C@H]3OC)cnn12 [Compound I-266]
< 0.1 µM	CNc1cc(Nc2cccn([C@@H]3C[C@H]3F)c2=O)nc2c(C(=O)NC3CCC3(F)F)cnn12 (stereo partly shown) [Compound I-274]
< 0.1 µM	CNc1cc(Nc2cccn([C@@H]3C[C@H]3F)c2=O)nc2c(C(=O)N[C@@H]3CCC3(F)F)cnn12 [Compound I-276]
< 0.1 µM	CNc1cc(Nc2cccn([C@H]3C[C@@H]3F)c2=O)nc2c(C(=O)NC3CCC3(F)F)cnn12 (stereo partly shown) [Compound I-277]
< 0.1 µM	CNc1cc(Nc2cccn([C@H]3C[C@@H]3F)c2=O)nc2c(C(=O)N[C@@H]3CCC3(F)F)cnn12 [Compound I-279]
< 0.1 µM	CNc1cc(Nc2cccn(C3COC3)c2=O)nc2c(C(=O)NC3CCC3(F)F)cnn12 (stereo not shown) [Compound I-280]
< 0.1 µM	CNc1cc(Nc2cccn(C3COC3)c2=O)nc2c(C(=O)N[C@@H]3CCC3(F)F)cnn12 [Compound I-282]
< 0.1 µM	CNc1cc(Nc2cccn([C@H]3C[C@H](F)C3)c2=O)nc2c(C(=O)NC3CCC3(F)F)cnn12 (stereo partly shown) [Compound I-283]
< 0.1 µM	CNc1cc(Nc2cccn([C@H]3C[C@H](F)C3)c2=O)nc2c(C(=O)N[C@@H]3CCC3(F)F)cnn12 [Compound I-285]
< 0.1 µM	CNc1cc(Nc2cccn([C@H]3CC[C@H]3O)c2=O)nc2c(C(=O)NC3CCC3(F)F)cnn12 (stereo partly shown) [Compound I-286]

IC50	Compound
< 0.1 µM	CNc1cc(Nc2cccn([C@H]3CC[C@H]3O)c2=O)nc2c(C(=O)N[C@H]3CCC3(F)F)cnn12 [Compound I-287]
< 0.1 µM	CNc1cc(Nc2cccn([C@@H]3CC[C@@H]3O)c2=O)nc2c(C(=O)N[C@H]3CCC3(F)F)cnn12 [Compound I-290]
< 0.1 µM	CNc1cc(Nc2cccn([C@H]3C[C@H](OC)C3)c2=O)nc2c(C(=O)NC3CCC3(F)F)cnn12 (stereo partly shown) [Compound I-292]
< 0.1 µM	CNc1cc(Nc2cccn([C@H]3C[C@H](OC)C3)c2=O)nc2c(C(=O)N[C@H]3CCC3(F)F)cnn12 [Compound I-293]
< 0.1 µM	CNc1cc(Nc2cccn([C@H]3C[C@@H](OC)C3)c2=O)nc2c(C(=O)NC3CCC3(F)F)cnn12 (stereo partly shown) [Compound I-295]
< 0.1 µM	CNc1cc(Nc2cccn([C@H]3C[C@@H](OC)C3)c2=O)nc2c(C(=O)N[C@H]3CCC3(F)F)cnn12 [Compound I-296]
< 0.1 µM	CNc1cc(Nc2cccn([C@@H]3CCC[C@@H]3O)c2=O)nc2c(C(=O)NC3CCC3(F)F)cnn12 (stereo partly shown) [Compound I-303]
< 0.1 µM	CNc1cc(Nc2cccn([C@@H]3CCC[C@@H]3O)c2=O)nc2c(C(=O)N[C@@H]3CCC3(F)F)cnn12 [Compound I-305]
< 0.1 µM	CNc1cc(Nc2cccn([C@H]3[C@@H]4COC[C@@H]43)c2=O)nc2c(C(=O)NC3CCC3(F)F)cnn12 (stereo partly shown) [Compound I-306]
< 0.1 µM	CNc1cc(Nc2cccn([C@H]3[C@@H]4COC[C@@H]43)c2=O)nc2c(C(=O)N[C@H]3CCC3(F)F)cnn12 [Compound I-307]
< 0.1 µM	CNc1cc(Nc2cccn(C3CCOCC3)c2=O)nc2c(C(=O)NC3CCC3(F)F)cnn12 (stereo not shown) [Compound I-309]
< 0.1 µM	CNc1cc(Nc2cccn(C3CCOCC3)c2=O)nc2c(C(=O)N[C@@H]3CCC3(F)F)cnn12 [Compound I-311]
< 0.1 µM	CNc1cc(Nc2cccn([C@H]3CCCOC3)c2=O)nc2c(C(=O)NC3CCC3(F)F)cnn12 (stereo partly shown) [Compound I-312]
< 0.1 µM	CNc1cc(Nc2cccn([C@H]3CCCOC3)c2=O)nc2c(C(=O)N[C@@H]3CCC3(F)F)cnn12 [Compound I-314]
< 0.1 µM	CNc1cc(Nc2cccn([C@@H]3CCCOC3)c2=O)nc2c(C(=O)NC3CCC3(F)F)cnn12 (stereo partly shown) [Compound I-315]
< 0.1 µM	CNc1cc(Nc2cccn([C@@H]3CCCOC3)c2=O)nc2c(C(=O)N[C@@H]3CCC3(F)F)cnn12 [Compound I-317]
< 0.1 µM	CNc1cc(Nc2cccn(-c3ccccn3)c2=O)nc2c(C(=O)NC3CCC3(F)F)cnn12 (stereo not shown) [Compound I-318]
< 0.1 µM	CNc1cc(Nc2cccn(-c3ccccn3)c2=O)nc2c(C(=O)N[C@@H]3CCC3(F)F)cnn12 [Compound I-320]
< 0.1 µM	CNc1cc(Nc2cccn(-c3ccc(C)nc3)c2=O)nc2c(C(=O)NC3CCC3(F)F)cnn12 (stereo not shown) [Compound I-324]
< 0.1 µM	CNc1cc(Nc2cccn(-c3ccc(C)nc3)c2=O)nc2c(C(=O)N[C@H]3CCC3(F)F)cnn12 [Compound I-325]
< 0.1 µM	CNc1cc(Nc2cccn([C@@H]3CCC[C@H](C#N)C3)c2=O)nc2c(C(=O)NC3CCC3(F)F)cnn12 (stereo partly shown) [Compound I-327]
< 0.1 µM	CNc1cc(Nc2cccn([C@@H]3CCC[C@H](C#N)C3)c2=O)nc2c(C(=O)N[C@H]3CCC3(F)F)cnn12 [Compound I-328]

IC50	Compound
< 0.1 µM	CNc1cc(Nc2cccn([C@H]3CCC[C@@H](C#N)C3)c2=O)nc2c(C(=O)NC3CCC3(F)F)cnn12 (stereo partly shown) [Compound I-330]
< 0.1 µM	CNc1cc(Nc2cccn([C@H]3CCC[C@@H](C#N)C3)c2=O)nc2c(C(=O)N[C@H]3CCC3(F)F)cnn12 [Compound I-331]
< 0.1 µM	CNc1cc(Nc2cccn([C@@H]3CCOC[C@@H]3OC)c2=O)nc2c(C(=O)NC3CCC3(F)F)cnn12 (stereo partly shown) [Compound I-336]
< 0.1 µM	CNc1cc(Nc2cccn([C@@H]3CCOC[C@@H]3OC)c2=O)nc2c(C(=O)N[C@@H]3CCC3(F)F)cnn12 [Compound I-338]
< 0.1 µM	CNc1cc(Nc2cccn(C(C)C)c2=O)nc2c(C(=O)NC3CC[C@]3(C)O)cnn12 (stereo partly shown) [Compound I-339]
< 0.1 µM	CNc1cc(Nc2cccn(C(C)C)c2=O)nc2c(C(=O)N[C@@H]3CC[C@@]3(C)O)cnn12 [Compound I-341]
< 0.1 µM	CNc1cc(Nc2cccn(C3CCOCC3)c2=O)nc2c(C(=O)NC3CC[C@]3(C)O)cnn12 (stereo partly shown) [Compound I-348]
< 0.1 µM	CNc1cc(Nc2cccn(C3CCOCC3)c2=O)nc2c(C(=O)N[C@H]3CC[C@]3(C)O)cnn12 [Compound I-349]
< 0.1 µM	CNc1cc(Nc2cccn([C@H]3CC[C@@H]3O)c2=O)nc2c(C(=O)N[C@@H]3CC[C@@]3(C)OC)cnn12 [Compound I-377]
< 0.1 µM	CNc1cc(Nc2cccn([C@H]3CCC[C@H]3O)c2=O)nc2c(C(=O)NC3CC[C@]3(C)OC)cnn12 (stereo partly shown) [Compound I-390]
< 0.1 µM	CNc1cc(Nc2cccn([C@H]3CCC[C@H]3O)c2=O)nc2c(C(=O)N[C@H]3CC[C@]3(C)OC)cnn12 [Compound I-391]
< 0.1 µM	CNc1cc(Nc2cccn(C3CCOCC3)c2=O)nc2c(C(=O)NC3CC[C@@]3(C)OC)cnn12 (stereo partly shown) [Compound I-405]
< 0.1 µM	CNc1cc(Nc2cccn(C3CCOCC3)c2=O)nc2c(C(=O)N[C@H]3CC[C@]3(C)OC)cnn12 [Compound I-407]
< 0.1 µM	CNc1cc(Nc2cccn([C@H]3[C@@H]4COC[C@@H]43)c2=O)nc2c(C(=O)N[C@@H]3CC[C@@]3(C)OC)cnn12 [Compound I-410]
< 0.1 µM	CNc1cc(Nc2cccn(-c3ncccc3F)c2=O)nc2c(C(=O)NC3CC[C@@]3(C)OC)cnn12 (stereo partly shown) [Compound I-414]
< 0.1 µM	CNc1cc(Nc2cccn(-c3ncccc3F)c2=O)nc2c(C(=O)N[C@@H]3CC[C@@]3(C)OC)cnn12 [Compound I-415]
< 0.1 µM	CNc1cc(Nc2cccn([C@H]3CCCC[C@H]3O)c2=O)nc2c(C(=O)NC3CC[C@]3(C)OC)cnn12 (stereo partly shown) [Compound I-423]
< 0.1 µM	CNc1cc(Nc2cccn([C@H]3CCCC[C@H]3O)c2=O)nc2c(C(=O)N[C@H]3CC[C@]3(C)OC)cnn12 [Compound I-424]
< 0.1 µM	CNc1cc(Nc2cccn([C@H]3CC[C@H](OC)CC3)c2=O)nc2c(C(=O)N[C@@H]3CC[C@@]3(C)OC)cnn12 [Compound I-428]
< 0.1 µM	CNc1cc(Nc2cccn([C@H]3CC[C@@H](OC)CC3)c2=O)nc2c(C(=O)N[C@@H]3CC[C@@]3(C)OC)cnn12 [Compound I-431]
